Measured values as given in ChEMBL document CHEMBL1201862, “PubChem BioAssay data set” (2004).
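Exposure lasted 48 hours, with cells grown in 96-well plates and compounds tested at five concentrations. Here, GI50 denotes the concentration required for 50% inhibition of growth.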 The source made the active and inactive calls. No stated cut-off is given here; in the data, active = GI50 up to about 1.1 µM and inactive = higher.

Experiments:
Test in all cases: DTP human tumour cell line panel, 48 h
[1] = tested on: COLO 205
[2] = tested on: HOP-92
[3] = tested on: NCI/ADR-RES
[4] = tested on: UACC-257
[5] = tested on: A498
[6] = tested on: IGROV-1
[7] = tested on: ACHN
[8] = tested on: A549
[9] = tested on: RXF 393
[10] = tested on: BT-549
[11] = tested on: SF-268
[12] = tested on: SF-295
[13] = tested on: NCI-H522
[14] = tested on: SK-MEL-2
[15] = tested on: MDA-N
[16] = tested on: 786-0
[17] = tested on: SR

Measured: GI50

COc1ccc(Cc2nc3cc(C(F)(F)F)ccc3n2CCCN(C)C)cc1
inactive: [1] 18 µM | [2] 26.5 µM | [3] 14.6 µM | [4] 17.1 µM | [5] 17.3 µM | [6] 28 µM | [7] 27.2 µM | [8] 17.3 µM | [9] 14.7 µM | [10] 15.3 µM | [11] 16.8 µM | [12] 19.7 µM | [13] 14.8 µM | [14] 19 µM

Cc1cc(Nc2ccc(S(=O)(=O)O)c3cc(S(=O)(=O)O)cc(S(=O)(=O)O)c23)c2ccccc2n1
inactive: [15] > 100 µM | [1] > 100 µM | [3] > 100 µM | [4] > 100 µM | [5] > 100 µM | [6] > 100 µM | [7] > 100 µM | [8] > 100 µM | [9] > 100 µM | [10] > 100 µM | [11] > 100 µM | [12] > 100 µM | [13] > 100 µM | [14] > 100 µM | [16] > 100 µM

CCOP(=O)(OCC)C(c1ccc(F)cc1)N(C(=O)NC(F)(F)F)c1ccc(F)cc1 (stereo not drawn)
inactive: [15] > 100 µM | [1] > 100 µM | [3] > 100 µM | [4] > 100 µM | [6] > 100 µM | [7] > 100 µM | [8] > 100 µM | [17] > 100 µM | [9] > 100 µM | [11] > 100 µM | [12] > 100 µM | [13] > 100 µM | [16] > 100 µM

COc1cc(/C=C/C(=O)OCC23CC[C@@]4(C(=O)O)CCC(C)[C@H](C)C4C2=CCC2[C@@]4(C)CC[C@H](O)C(C)(C)C4CC[C@]23C)ccc1O (stereo partly drawn)
inactive: [15] 24.3 µM | [1] > 10 µM | [3] 15.6 µM | [4] 17.7 µM | [5] 32.4 µM | [6] 14.5 µM | [7] 3.05 µM | [8] 7.76 µM | [17] 19.4 µM | [9] 12.7 µM | [10] 19.5 µM | [11] 4.66 µM | [12] 23.8 µM | [13] 3.98 µM | [14] 22.5 µM | [16] 11 µM

COc1cc(CNC(=O)CCCCCCCC/C=C/Br)ccc1O
inactive: [15] > 10 µM | [1] > 10 µM | [2] > 10 µM | [3] > 10 µM | [4] > 10 µM | [5] > 10 µM | [6] > 10 µM | [7] > 10 µM | [8] > 10 µM | [17] > 10 µM | [9] > 10 µM | [11] > 10 µM | [12] > 10 µM | [13] > 10 µM | [14] > 10 µM | [16] > 10 µM

O=c1c2cn[nH]c2nc2scc(-c3ccc(Cl)cc3)n12
inactive: [15] > 100 µM | [1] > 100 µM | [3] > 100 µM | [4] > 100 µM | [6] > 100 µM | [7] > 100 µM | [8] > 100 µM | [17] > 100 µM | [9] > 100 µM | [11] > 100 µM | [12] > 100 µM | [13] > 100 µM | [14] 53.6 µM | [16] > 100 µM

Cc1cc2ncn(C3CCCO3)c2cc1C (stereo not drawn)
inactive: [15] > 100 µM | [1] > 100 µM | [2] > 100 µM | [3] > 100 µM | [4] > 100 µM | [6] > 100 µM | [7] > 100 µM | [8] > 100 µM | [17] > 100 µM | [9] > 100 µM | [10] > 100 µM | [11] > 100 µM | [12] > 100 µM | [13] 12.1 µM | [14] > 100 µM | [16] > 100 µM

COc1ccc2c(C)cc(N/N=C/c3ccc(OC)c4ccccc34)nc2c1
inactive: [1] 16.7 µM | [2] 11.2 µM | [3] 14.4 µM | [4] 19.3 µM | [6] 14.9 µM | [7] 4.48 µM | [8] 18.6 µM | [17] 4.17 µM | [9] 16.7 µM | [10] 20.1 µM | [11] 15.9 µM | [12] 16.8 µM | [13] 12 µM | [14] 19.2 µM | [16] 12.1 µM

Cc1cccc(Nc2nc3ccccc3nc2NS(=O)(=O)c2ccc(N)cc2)c1
inactive: [15] 45.9 µM | [1] 21.1 µM | [2] 40.3 µM | [3] 36.1 µM | [4] 41.4 µM | [6] 33 µM | [7] 32.2 µM | [8] 23.8 µM | [17] 19.8 µM | [9] 18.5 µM | [10] 9.42 µM | [11] 63.7 µM | [12] 34.8 µM | [13] 18 µM | [14] 24.9 µM | [16] 30 µM

C/C(Cc1ccc2c(c1)OCO2)=N\N=c1\sc2ccccc2n1C
inactive: [15] 83.2 µM | [1] > 100 µM | [2] 84.9 µM | [3] > 100 µM | [4] > 100 µM | [5] > 100 µM | [6] > 100 µM | [7] > 100 µM | [8] > 100 µM | [9] > 100 µM | [10] > 100 µM | [11] > 100 µM | [12] > 100 µM | [13] > 100 µM | [14] > 100 µM | [16] > 100 µM

NNc1[nH]c(=S)[nH]c1C(N)=O
inactive: [1] > 100 µM | [3] > 100 µM | [4] > 100 µM | [5] > 100 µM | [6] > 100 µM | [8] > 100 µM | [9] > 100 µM | [10] > 100 µM | [11] > 100 µM | [12] > 100 µM | [13] > 100 µM | [14] > 100 µM | [16] > 100 µM

COC1OC(CO)C(O)C(OC(=O)c2cc(O)c(O)c(O)c2)C1OC(=O)c1cc(O)c(O)c(O)c1 (stereo not drawn)
inactive: [15] 25.1 µM | [1] 59.8 µM | [3] 60.4 µM | [4] 95.3 µM | [6] > 100 µM | [7] 58.2 µM | [8] > 100 µM | [17] 53.7 µM | [9] > 100 µM | [10] > 100 µM | [11] 59.4 µM | [12] 20.2 µM | [13] 30.5 µM | [14] > 100 µM | [16] > 100 µM

COc1ccc(N2C(=O)C3c4[nH]c5ccccc5c4C4CCCCCCCC4C3C2=O)cc1 (stereo not drawn)
inactive: [15] > 10 µM | [1] > 10 µM | [3] > 10 µM | [5] > 10 µM | [6] > 10 µM | [7] > 10 µM | [8] > 10 µM | [17] > 10 µM | [9] > 10 µM | [11] > 10 µM | [12] > 10 µM | [13] > 10 µM | [14] > 10 µM

COC(=O)c1ccc2c(c1)CC1(C2)Cc2ccccc2C1=O (stereo not drawn)
inactive: [15] 27.7 µM | [1] 18 µM | [2] 18.1 µM | [3] 27.6 µM | [4] 15.1 µM | [5] 37.6 µM | [6] 33.3 µM | [7] 29.7 µM | [8] 53.1 µM | [17] 22.2 µM | [9] 33.3 µM | [11] 35 µM | [12] 39.4 µM | [13] 25.3 µM | [14] 27.4 µM | [16] 40.2 µM

C[Si](C)(C)C1=C2C(=O)c3ccccc3C(=O)C2=C([Si](C)(C)C)[C@@H]2CCCC[C@H]12
inactive: [15] > 100 µM | [1] > 100 µM | [2] > 100 µM | [4] > 100 µM | [5] > 100 µM | [6] > 100 µM | [7] > 100 µM | [8] > 100 µM | [17] > 100 µM | [9] > 100 µM | [10] > 100 µM | [12] > 100 µM | [13] > 100 µM | [14] > 100 µM

N#Cc1sc2c(c1O)c(=O)n(-c1ccccc1)c(=S)n2-c1ccccc1
inactive: [15] > 100 µM | [1] > 100 µM | [2] > 100 µM | [4] > 100 µM | [6] > 100 µM | [7] > 100 µM | [8] > 100 µM | [17] > 100 µM | [9] > 100 µM | [10] > 100 µM | [11] > 100 µM | [12] > 100 µM | [13] > 100 µM | [14] > 100 µM | [16] > 100 µM

Cn1c(=O)oc2cc(C(=S)N3CCCCC3)ccc21
inactive: [15] > 100 µM | [1] > 100 µM | [3] > 100 µM | [4] > 100 µM | [5] > 100 µM | [6] > 100 µM | [7] > 100 µM | [17] 68.4 µM | [9] > 100 µM | [10] > 100 µM | [11] > 100 µM | [12] > 100 µM | [14] > 100 µM | [16] > 100 µM

CC(NC(CC12CC3CC(CC(C3)C1)C2)C(N)=O)c1ccccc1 (stereo not drawn)
inactive: [15] 25.6 µM | [1] 12.6 µM | [3] 17.8 µM | [4] 15.2 µM | [5] 14.6 µM | [6] 39.7 µM | [7] 20.9 µM | [8] 39.8 µM | [17] 17.4 µM | [11] 25 µM | [12] 13 µM | [13] 18 µM
